Compound in test [1]: Nc1nc2c(ncn2[C@@H]2O[C@H](COP(=O)(O)OP(=O)(O)OP(=O)(O)O)[C@@H](O)[C@H]2O)c(=O)[nH]1 [guanosine triphosphate]
As to the kind of experiment: pEC50 of GTP-induced change in protein thermal stability (2D-TPP). As for the experimental part:
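2D thermal proteome profiling in Jurkat crude lysate. Lysate was treated 10 min at room temperature with Na-GTP (0, 0.001, 0.01, 0.1, 0.5 mM), heated to 12 temperatures (42-63.9 °C) for 3 min, and soluble protein was quantified by TMT10 LC-MS/MS. pEC50 is the median over replicates of dose-response fits (FDR-controlled hits).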

Compound in test [2]: Nc1ncnc2c1ncn2[C@@H]1O[C@H](COP(=O)(O)OP(=O)(O)OP(=O)(O)O)[C@@H](O)[C@H]1O [adenosine triphosphate]
The experiment in a line: pEC50 of ATP-induced change in protein thermal stability (2D-TPP). The essentials: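 pEC50 was obtained by fitting dose-response curves for each replicate over pairs of adjacent temperatures, and hits were assigned using permutation-based false discovery rate control. The input came from Jurkat crude lysate treated with five concentrations including vehicle (10 min, room temperature), heated at 12 temperatures from 42 to 63.9 °C for 3 min, then given NP40 and benzonase (60 min, 4 °C). After ultracentrifugation, soluble protein was quantified by TMT LC-MS/MS as median-normalised fold changes versus vehicle per temperature, across three independent experiments.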
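Throughout, for pEC50 of ATP-induced change in protein thermal stability (2D-TPP): lysate dosed with Na-ATP at 0 0.005 0.05 0.5 and 2 mM.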

Sequence of UniProt P12956 (P12956 whole entry): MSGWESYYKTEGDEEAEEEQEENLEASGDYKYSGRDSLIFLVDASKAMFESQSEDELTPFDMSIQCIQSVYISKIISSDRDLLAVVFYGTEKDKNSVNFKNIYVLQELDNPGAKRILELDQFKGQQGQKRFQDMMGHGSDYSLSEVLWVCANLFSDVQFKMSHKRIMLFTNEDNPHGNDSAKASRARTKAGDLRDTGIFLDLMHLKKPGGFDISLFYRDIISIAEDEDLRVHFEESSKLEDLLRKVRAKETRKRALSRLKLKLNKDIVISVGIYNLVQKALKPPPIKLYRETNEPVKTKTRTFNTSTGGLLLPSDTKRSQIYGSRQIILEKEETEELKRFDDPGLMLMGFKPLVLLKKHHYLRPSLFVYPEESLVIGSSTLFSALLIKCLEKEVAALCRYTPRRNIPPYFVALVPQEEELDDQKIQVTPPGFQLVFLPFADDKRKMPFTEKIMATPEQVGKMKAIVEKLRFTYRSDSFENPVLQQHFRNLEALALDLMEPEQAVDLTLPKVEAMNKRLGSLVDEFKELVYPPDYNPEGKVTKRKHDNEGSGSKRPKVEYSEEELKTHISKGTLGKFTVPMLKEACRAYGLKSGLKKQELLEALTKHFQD
Sequence of UniProt P18085 (P18085 whole entry): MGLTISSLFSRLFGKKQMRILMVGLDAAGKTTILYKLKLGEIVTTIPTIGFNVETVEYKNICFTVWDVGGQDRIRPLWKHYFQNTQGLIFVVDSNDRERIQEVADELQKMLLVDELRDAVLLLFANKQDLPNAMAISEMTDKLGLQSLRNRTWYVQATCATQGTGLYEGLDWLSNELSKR
Sequence of UniProt P40616 (P40616 whole entry): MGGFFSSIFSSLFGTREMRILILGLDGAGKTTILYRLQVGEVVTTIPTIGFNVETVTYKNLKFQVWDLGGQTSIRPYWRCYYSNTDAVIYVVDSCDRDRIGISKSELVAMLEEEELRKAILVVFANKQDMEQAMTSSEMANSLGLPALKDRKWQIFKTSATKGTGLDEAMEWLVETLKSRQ
Sequence of UniProt P61204 (P61204 whole entry): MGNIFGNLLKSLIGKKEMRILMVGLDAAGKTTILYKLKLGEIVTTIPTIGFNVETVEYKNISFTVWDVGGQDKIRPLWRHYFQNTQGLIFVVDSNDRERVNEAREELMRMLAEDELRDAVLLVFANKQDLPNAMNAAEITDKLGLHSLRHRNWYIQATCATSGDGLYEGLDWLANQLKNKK
Sequence of UniProt Q4G176 (Q4G176 whole entry): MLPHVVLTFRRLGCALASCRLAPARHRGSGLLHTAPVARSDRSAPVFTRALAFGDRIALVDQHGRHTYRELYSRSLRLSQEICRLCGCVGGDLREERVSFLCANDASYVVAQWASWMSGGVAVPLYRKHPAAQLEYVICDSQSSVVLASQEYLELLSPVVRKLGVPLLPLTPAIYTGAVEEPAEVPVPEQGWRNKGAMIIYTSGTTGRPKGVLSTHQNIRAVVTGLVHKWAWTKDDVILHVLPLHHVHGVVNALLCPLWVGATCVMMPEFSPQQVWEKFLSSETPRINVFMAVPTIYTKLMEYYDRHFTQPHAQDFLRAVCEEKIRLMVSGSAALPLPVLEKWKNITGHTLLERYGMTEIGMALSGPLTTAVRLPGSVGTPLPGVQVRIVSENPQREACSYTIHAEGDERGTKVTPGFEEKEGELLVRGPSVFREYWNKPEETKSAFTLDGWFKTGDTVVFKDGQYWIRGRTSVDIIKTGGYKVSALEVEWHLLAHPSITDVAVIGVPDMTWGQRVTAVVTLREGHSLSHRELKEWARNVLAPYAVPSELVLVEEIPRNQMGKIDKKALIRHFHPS
Sequence of UniProt P50416 (P50416 whole entry): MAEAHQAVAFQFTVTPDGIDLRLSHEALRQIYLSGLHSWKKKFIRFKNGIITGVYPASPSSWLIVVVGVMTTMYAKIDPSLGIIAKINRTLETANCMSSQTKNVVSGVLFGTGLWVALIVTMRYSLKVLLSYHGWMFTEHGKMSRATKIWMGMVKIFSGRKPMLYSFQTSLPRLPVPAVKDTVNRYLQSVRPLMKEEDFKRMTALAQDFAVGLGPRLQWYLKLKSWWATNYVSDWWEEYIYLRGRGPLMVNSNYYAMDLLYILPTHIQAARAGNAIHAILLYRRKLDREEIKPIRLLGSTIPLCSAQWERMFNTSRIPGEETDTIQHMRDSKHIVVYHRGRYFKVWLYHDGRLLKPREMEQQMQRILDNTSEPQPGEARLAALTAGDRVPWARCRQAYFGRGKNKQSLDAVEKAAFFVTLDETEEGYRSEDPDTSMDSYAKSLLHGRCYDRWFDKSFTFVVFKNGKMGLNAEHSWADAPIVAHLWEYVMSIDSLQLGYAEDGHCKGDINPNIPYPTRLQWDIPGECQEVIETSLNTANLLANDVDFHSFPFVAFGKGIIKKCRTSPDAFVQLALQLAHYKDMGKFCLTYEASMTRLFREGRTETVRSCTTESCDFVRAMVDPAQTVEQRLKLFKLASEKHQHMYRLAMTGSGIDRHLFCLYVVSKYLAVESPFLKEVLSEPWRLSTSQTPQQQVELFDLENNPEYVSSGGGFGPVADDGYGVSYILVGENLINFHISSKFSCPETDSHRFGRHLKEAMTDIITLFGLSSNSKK
Sequence of UniProt Q8IY37 (Q8IY37 whole entry): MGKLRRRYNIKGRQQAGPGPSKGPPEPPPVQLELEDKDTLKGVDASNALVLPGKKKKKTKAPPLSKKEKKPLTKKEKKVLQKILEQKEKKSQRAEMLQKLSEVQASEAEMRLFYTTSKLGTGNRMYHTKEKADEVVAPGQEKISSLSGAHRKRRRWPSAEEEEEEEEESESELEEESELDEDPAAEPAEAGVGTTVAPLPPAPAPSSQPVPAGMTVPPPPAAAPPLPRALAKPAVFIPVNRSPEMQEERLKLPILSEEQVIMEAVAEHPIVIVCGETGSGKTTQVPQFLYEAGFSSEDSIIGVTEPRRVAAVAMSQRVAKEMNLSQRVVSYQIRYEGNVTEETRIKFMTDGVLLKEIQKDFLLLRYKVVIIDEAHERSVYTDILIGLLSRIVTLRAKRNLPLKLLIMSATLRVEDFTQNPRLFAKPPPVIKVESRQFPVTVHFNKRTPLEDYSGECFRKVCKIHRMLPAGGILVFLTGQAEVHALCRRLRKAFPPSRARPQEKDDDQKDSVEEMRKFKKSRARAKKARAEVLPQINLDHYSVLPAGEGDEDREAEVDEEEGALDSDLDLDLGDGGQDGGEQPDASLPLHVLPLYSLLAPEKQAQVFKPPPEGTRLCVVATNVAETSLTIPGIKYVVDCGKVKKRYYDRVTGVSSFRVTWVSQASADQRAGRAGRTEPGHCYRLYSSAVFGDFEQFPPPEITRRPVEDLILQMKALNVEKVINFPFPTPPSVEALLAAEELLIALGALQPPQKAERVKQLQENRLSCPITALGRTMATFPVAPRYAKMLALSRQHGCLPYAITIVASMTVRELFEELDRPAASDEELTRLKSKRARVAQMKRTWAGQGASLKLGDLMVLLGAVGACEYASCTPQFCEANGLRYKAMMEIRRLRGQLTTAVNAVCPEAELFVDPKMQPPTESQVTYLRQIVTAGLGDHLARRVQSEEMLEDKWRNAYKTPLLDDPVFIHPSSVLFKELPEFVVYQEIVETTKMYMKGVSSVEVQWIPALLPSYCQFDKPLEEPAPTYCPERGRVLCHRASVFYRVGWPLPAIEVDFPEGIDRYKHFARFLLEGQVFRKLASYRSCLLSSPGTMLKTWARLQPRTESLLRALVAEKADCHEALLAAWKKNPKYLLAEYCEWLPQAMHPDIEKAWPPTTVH
Sequence of UniProt P57772 (P57772 whole entry): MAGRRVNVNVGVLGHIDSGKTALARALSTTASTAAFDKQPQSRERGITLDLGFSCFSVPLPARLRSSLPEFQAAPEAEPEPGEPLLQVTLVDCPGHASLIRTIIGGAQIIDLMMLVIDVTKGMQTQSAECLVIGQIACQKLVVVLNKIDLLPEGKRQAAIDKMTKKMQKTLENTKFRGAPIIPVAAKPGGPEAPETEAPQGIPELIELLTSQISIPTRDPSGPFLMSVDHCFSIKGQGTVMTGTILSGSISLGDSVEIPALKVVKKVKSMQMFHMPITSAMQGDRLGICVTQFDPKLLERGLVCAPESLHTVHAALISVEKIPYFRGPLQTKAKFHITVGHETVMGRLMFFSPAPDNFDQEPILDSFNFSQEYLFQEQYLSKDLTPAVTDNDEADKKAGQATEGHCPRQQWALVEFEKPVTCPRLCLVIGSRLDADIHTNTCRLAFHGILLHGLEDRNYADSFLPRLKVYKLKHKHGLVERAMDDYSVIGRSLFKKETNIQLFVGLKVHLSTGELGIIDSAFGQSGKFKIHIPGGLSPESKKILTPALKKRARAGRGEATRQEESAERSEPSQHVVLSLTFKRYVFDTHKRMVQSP
Sequence of UniProt Q9NVI7 (Q9NVI7 whole entry): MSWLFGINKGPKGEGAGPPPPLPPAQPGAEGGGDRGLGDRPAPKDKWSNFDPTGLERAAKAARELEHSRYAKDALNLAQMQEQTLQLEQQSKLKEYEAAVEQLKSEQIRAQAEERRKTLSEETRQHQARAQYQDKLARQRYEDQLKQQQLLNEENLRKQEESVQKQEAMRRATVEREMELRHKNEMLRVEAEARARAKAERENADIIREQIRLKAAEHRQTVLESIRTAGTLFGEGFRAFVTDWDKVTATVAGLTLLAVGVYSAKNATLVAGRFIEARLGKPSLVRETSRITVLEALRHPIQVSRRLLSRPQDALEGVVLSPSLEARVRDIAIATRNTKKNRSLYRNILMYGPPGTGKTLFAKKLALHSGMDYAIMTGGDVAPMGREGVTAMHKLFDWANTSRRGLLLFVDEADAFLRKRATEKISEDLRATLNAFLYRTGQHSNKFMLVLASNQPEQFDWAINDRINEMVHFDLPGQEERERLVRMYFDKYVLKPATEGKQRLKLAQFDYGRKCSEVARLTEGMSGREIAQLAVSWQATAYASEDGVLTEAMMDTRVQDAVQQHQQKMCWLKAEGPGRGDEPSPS

For orientation: pEC50 means −log10 of the EC50, conventionally taken in molar units. On to “ABCD3 (effect direction: stabilized) (UniProt P28288)”, for which the pEC50 in test [1] stood at 3.69.

Consider “ACSF3 (effect direction: destabilized) (UniProt Q4G176)”, for which the pEC50 in test [1] was determined as 3.56.

For “ALG1 (effect direction: stabilized) (UniProt Q9BT22)”, in test [1], the pEC50 turned out to be 3.56.

Consider “ALG5 (effect direction: stabilized) (UniProt Q9Y673)”, for which the pEC50 in test [1] was 4.68.

Consider “ARF3 (effect direction: stabilized) (UniProt P61204)”, for which the pEC50 in test [1] came to 4.12.

For the target “ARF4 (effect direction: stabilized) (UniProt P18085)”, the pEC50 in test [1] is 4.57.

On to “ARL1 (effect direction: stabilized) (UniProt P40616)”, for which the negative logarithm of the EC50 (pEC50) in test [1] was determined as 3.92.

“ARL3 (effect direction: stabilized) (UniProt P36405)”: in test [1], the negative logarithm of the EC50 (pEC50) came out at 4.36.

Consider “ARL6 (effect direction: stabilized) (UniProt Q9H0F7)”, for which the negative-log EC50 (pEC50) in test [1] was determined as 4.1.

In the case of “ATAD3A (effect direction: stabilized) (UniProt Q9NVI7)”, the negative logarithm of the EC50 (pEC50) in test [1] was 4.22.

As to “ATL2 (effect direction: stabilized) (UniProt Q8NHH9)”, the negative logarithm of the EC50 (pEC50) in test [1] is 3.88.

For the target “CDC123 (effect direction: stabilized) (UniProt O75794)”, the negative logarithm of the EC50 (pEC50) in test [1] was < 3.3.

Take “COASY (effect direction: stabilized) (UniProt Q13057)”: in test [1], the pEC50 amounted to 4.03.

With “CPSF6 (effect direction: stabilized) (UniProt Q16630)”, the pEC50 in test [1] was < 3.3.

Regarding “CPT1A (effect direction: stabilized) (UniProt P50416)”, the negative-log EC50 (pEC50) in test [1] is 4.62.

For the target “DDX1 (effect direction: stabilized) (UniProt Q92499)”, the pEC50 in test [1] came out at 4.57.

In the case of “DHX30 (effect direction: destabilized) (UniProt Q7L2E3)”, the pEC50 in test [1] was found to be 3.92.

On to “DHX37 (effect direction: stabilized) (UniProt Q8IY37)”, for which the negative logarithm of the EC50 (pEC50) in test [1] was determined as 3.8.

In the case of “DNM1 (effect direction: stabilized) (UniProt Q05193)”, in test [1], the pEC50 was 3.62.

“DNM2 (effect direction: stabilized) (UniProt P50570)”: the pEC50 in test [1] was found to be 3.78.

Take “DOCK2 (effect direction: stabilized) (UniProt Q92608)”: the negative-log EC50 (pEC50) in test [1] is 3.81.

For “DRG1 (effect direction: stabilized) (UniProt Q9Y295)”, the pEC50 in test [1] is 4.7.

“EEFSEC (effect direction: stabilized) (UniProt P57772)”: the pEC50 in test [1] worked out at 3.92.

Regarding “EIF5B (effect direction: stabilized) (UniProt O60841)”, the negative logarithm of the EC50 (pEC50) in test [1] worked out at 3.81.

With “ETNK1 (effect direction: stabilized) (UniProt Q9HBU6)”, in test [1], the pEC50 is 4.21.

For “FPGT (effect direction: stabilized) (UniProt O14772)”, the negative-log EC50 (pEC50) in test [1] came to 3.91.

As to “GBP1 (effect direction: stabilized) (UniProt P32455)”, the pEC50 in test [1] came to 3.82.

For “GDI2 (effect direction: stabilized) (UniProt P50395)”, the pEC50 in test [1] was determined as 3.74.

With “GFM1 (effect direction: stabilized) (UniProt Q96RP9)”, in test [1], the negative logarithm of the EC50 (pEC50) came to 4.04.

Regarding “GIMAP4 (effect direction: stabilized) (UniProt Q9NUV9)”, the negative logarithm of the EC50 (pEC50) in test [1] came out at 3.72.

Regarding “GNAO1 (effect direction: stabilized) (UniProt P09471)”, the negative-log EC50 (pEC50) in test [1] was 4.24.

Turning to “GNAQ (effect direction: stabilized) (UniProt P50148)”, in test [1], the pEC50 amounted to 3.6.

“GNL2 (effect direction: stabilized) (UniProt Q13823)”: in test [1], the negative logarithm of the EC50 (pEC50) is 4.2.

On to “GPN1 (effect direction: stabilized) (UniProt Q9HCN4)”, for which the pEC50 in test [1] is 4.95.

As to “GSPT2 (effect direction: stabilized) (UniProt Q8IYD1)”, the pEC50 in test [1] was 4.27.

Turning to “H2AFX (effect direction: stabilized) (UniProt P16104)”, in test [1], the negative-log EC50 (pEC50) amounted to 3.49.

Regarding “H2AFY (effect direction: stabilized) (UniProt O75367)”, the pEC50 in test [1] worked out at 3.67.

In the case of “HBS1L (effect direction: stabilized) (UniProt Q9Y450)”, in test [1], the pEC50 came out at 4.21.

Take “HSPD1 (effect direction: destabilized) (UniProt P10809)”: the negative logarithm of the EC50 (pEC50) in test [1] was 4.2.

Regarding “KRAS (effect direction: stabilized) (UniProt P01116)”, the negative logarithm of the EC50 (pEC50) in test [1] was 4.32.

Consider “LSG1 (effect direction: stabilized) (UniProt Q9H089)”, for which the negative-log EC50 (pEC50) in test [1] was found to be 3.88.

As for “MFN1 (effect direction: stabilized) (UniProt Q8IWA4)”, the pEC50 in test [1] was determined as 3.96.

As for “MMAA (effect direction: stabilized) (UniProt Q8IVH4)”, the pEC50 in test [1] came out at 4.08.

Consider “NKIRAS2 (effect direction: stabilized) (UniProt Q9NYR9)”, for which, in test [1], the pEC50 came out at 4.17.

As to “NRAS (effect direction: stabilized) (UniProt P01111)”, in test [1], the pEC50 amounted to 4.01.

With “NUBPL (effect direction: stabilized) (UniProt Q8TB37)”, the negative logarithm of the EC50 (pEC50) in test [1] came to 3.93.

Turning to “OPA1 (effect direction: stabilized) (UniProt O60313)”, in test [1], the negative logarithm of the EC50 (pEC50) turned out to be 3.71.

As for “PANK3 (effect direction: stabilized) (UniProt Q9H999)”, in test [1], the negative logarithm of the EC50 (pEC50) was found to be 3.41.

For “XPNPEP1 (effect direction: stabilized) (UniProt Q9NQW7)”, in test [2], the pEC50 was found to be 2.77.

Turning to “XPO1 (effect direction: stabilized) (UniProt O14980)”, in test [2], the negative-log EC50 (pEC50) is < 2.7.

Turning to “XRCC5 (effect direction: stabilized) (UniProt P13010)”, in test [2], the negative-log EC50 (pEC50) was < 2.7.

As for “XRCC6 (effect direction: stabilized) (UniProt P12956)”, the pEC50 in test [2] is < 2.7.

As for “XYLB (effect direction: stabilized) (UniProt O75191)”, the pEC50 in test [2] turned out to be 3.04.

For “YARS2 (effect direction: stabilized) (UniProt Q9Y2Z4)”, the pEC50 in test [2] turned out to be 3.97.

Consider “YARS (effect direction: stabilized) (UniProt P54577)”, for which the pEC50 in test [2] came out at 3.25.

As for “YME1L1 (effect direction: stabilized) (UniProt Q96TA2)”, in test [2], the pEC50 was 3.54.

As for “YRDC (effect direction: stabilized) (UniProt Q86U90)”, the pEC50 in test [2] amounted to 2.91.

Regarding “ZC3HC1 (effect direction: stabilized) (UniProt Q86WB0)”, the pEC50 in test [2] came out at 2.91.

For “ZCCHC8 (effect direction: stabilized) (UniProt Q6NZY4)”, the pEC50 in test [2] was < 2.7.

For “ZCCHC9 (effect direction: destabilized) (UniProt Q8N567)”, the pEC50 in test [2] was < 2.7.

“ZNF148 (effect direction: stabilized) (UniProt Q9UQR1)”: the negative logarithm of the EC50 (pEC50) in test [2] came to 2.88.

As to “ZNF740 (effect direction: stabilized) (UniProt Q8NDX6)”, the pEC50 in test [2] is 3.16.

As for “ZRANB2 (effect direction: stabilized) (UniProt O95218)”, the pEC50 in test [2] stood at 2.84.

For the origin of these results see the supplement of paper PMC6411743.
